2 molecules from patent publication US4916220A, “Palmitoyl-fructose-1,6-diphosphate, its therapeutic use and relevant preparation methods” (Biomedica Foscama Industria Chimico-Farmaceutica, priority 1988, dated 1990) can be followed below.

Read-outs that look alike come from different tables or passages of the source.

Data set [1] relates to small slices of rat heart. Briefly: Attack of ^14C-FDP and ^14C-DPF to small slices of rat heart. It counts as cell-based. As to conditions: for Attack to small slices of rat heart: 5 mM, 40 min incubation at 25° C., 3 tests average. From the text: Small slices of rat heart were used to study comparatively the attack of ^14 C-FDP and ^14 C-DPF, the latter obtained by palmitoylation of a mixture of "hot" and "cold" FDP.

The test system of data set [2] is entrance of ^45Ca in small slices of heart. Briefly: Effect on the entrance of ^45Ca in small slices of heart. It counts as cell-based. To be noted: 3 min. at 25° C., 0.5 mM Ca; for effect on the entrance of ^45Ca: result in words. As to the method:
The effect on the entrance of ^45 Ca in small slices of heart incubated for 3 min. at 25° C. with 0.5 mM Ca is inhibitory both with FDP and with DPF and therefore both seem to protect the tissue from the anoxy occurring with the entrance of Ca.

The subject of the next data set is perfused rat heart. The data set can be described thus: Action on perfused rat heart (inotropic and chronotropic). It counts as cell-based. As to conditions: for EC50: biphasic inotropic and chronotropic effect, read-out: ED50 (perfused rat heart); for action on perfused heart (inotropic and chronotropic): result in words, final concentration.
The test system of data set [3] is organs (heart, kidneys, liver). Briefly: Radioactivity accumulated in organs after administration per os to rats. To be noted: 3,000,000 dpm total, 1 hour after administration. It counts as in vivo, rat.
Protocol: The administration to rats of ^14 C-FDP and ^14 C-DPF per os (3,000,000 dpm total) allowed measurement of the radioactivity accumulated 1 hour after administration at the level of the organs and the results are reported in Table 2.

Regarding `O=C(COP(=O)(O)O)[C@@H](O)[C@H](O)[C@H](O)COP(=O)(O)O` [FDP, fructose-1,6-diphosphate], the “Attack to small slices of rat heart” value in data set [1] was determined as 260 ± 20 nmoles/100 mg. For the same molecule, in data set [2], the “effect on the entrance of ^45Ca” value is on record as “inhibitory”. For the same molecule, the midpoint of inhibition in data set [2] (0.05 h), the IC50, lay at 8000 µM. In addition, in the data set on perfused rat heart (Rattus norvegicus), the EC50 was determined as 100 µM. Further, the “action on perfused heart (inotropic and chronotropic)” value in the data set with perfused rat heart was “biphasic, i.e. inotropic and chronotropic, positive at concentrations lower than 1 mM (final) and negative for higher concentrations”. Moreover, in data set [3], the “Accumulation of radioactivity, Heart” value was 508; the “Accumulation of radioactivity, Kidneys” value was found to be 395; the “Accumulation of radioactivity, Liver” value was 624.

Consider “palmitoyl-fructose-1,6-diphosphate [DPF]”, for which, in data set [1], the “Attack to small slices of rat heart” value is 344 ± 16 nmoles/100 mg. The “membrane affinity higher than that of FDP” value in data set [1] (relative to FDP) came out at 30%. Besides, in data set [2], 5500 µM corresponded to half-maximal inhibition (IC50) and the “effect on the entrance of ^45Ca” value is given as “inhibitory”. In the data set with perfused rat heart, the EC50 was 40 µM; the “action on perfused heart (inotropic and chronotropic)” value was “biphasic effect but its effect appears at lower doses”. Moreover, in data set [3], the “Accumulation of radioactivity, Heart” value is 1620; the “Accumulation of radioactivity, Kidneys” value was determined as 1324; the “Accumulation of radioactivity, Liver” value turned out to be 1434.
